Laboratory results as given in ChEMBL document CHEMBL5303765, “Data for DCP probe BAY-7081” (2023).

How the values were obtained:
[1] = biological target: Death-associated protein kinase 1 (Homo sapiens) (UniProt P53355); test: DAPK1 SGC Tm panel (DSF); settings: for ΔTm: Compound concentration 10.0 uM
[2] = biological target: T1, Serine/threonine-protein kinase DCLK1 (Homo sapiens) (UniProt O15075); test: DCAMKL1 SGC Tm panel (DSF); settings: for ΔTm: Compound concentration 10.0 uM
T1 sequence (whole entry): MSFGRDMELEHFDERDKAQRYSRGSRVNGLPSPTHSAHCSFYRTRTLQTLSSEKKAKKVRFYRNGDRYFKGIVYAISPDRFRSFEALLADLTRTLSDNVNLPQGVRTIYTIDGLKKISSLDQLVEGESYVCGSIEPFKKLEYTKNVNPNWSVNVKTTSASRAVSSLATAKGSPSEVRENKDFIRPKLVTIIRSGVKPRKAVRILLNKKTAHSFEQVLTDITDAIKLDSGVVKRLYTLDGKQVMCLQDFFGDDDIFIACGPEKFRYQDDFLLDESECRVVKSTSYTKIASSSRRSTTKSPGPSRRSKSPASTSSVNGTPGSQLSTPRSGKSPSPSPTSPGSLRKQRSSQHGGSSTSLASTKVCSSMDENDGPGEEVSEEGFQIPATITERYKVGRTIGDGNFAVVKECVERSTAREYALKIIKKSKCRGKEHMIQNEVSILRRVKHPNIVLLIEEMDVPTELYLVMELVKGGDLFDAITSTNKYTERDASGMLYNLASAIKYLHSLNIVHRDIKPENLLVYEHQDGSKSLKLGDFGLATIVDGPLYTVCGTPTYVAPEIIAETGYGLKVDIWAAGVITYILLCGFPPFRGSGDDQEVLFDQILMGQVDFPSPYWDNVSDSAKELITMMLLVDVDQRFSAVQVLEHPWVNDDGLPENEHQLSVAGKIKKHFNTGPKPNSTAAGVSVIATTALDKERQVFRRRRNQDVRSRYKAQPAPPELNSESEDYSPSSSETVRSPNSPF

[3] = biological target: Tyrosine-protein kinase Fes/Fps (Homo sapiens) (UniProt P07332); test: FES SGC Tm panel (DSF); settings: for ΔTm: Compound concentration 10.0 uM
[4] = biological target: T2, Serine/threonine-protein kinase haspin (Homo sapiens) (UniProt Q8TF76); test: GSG2 SGC Tm panel (DSF); settings: for ΔTm: Compound concentration 10.0 uM
T2 sequence (whole entry): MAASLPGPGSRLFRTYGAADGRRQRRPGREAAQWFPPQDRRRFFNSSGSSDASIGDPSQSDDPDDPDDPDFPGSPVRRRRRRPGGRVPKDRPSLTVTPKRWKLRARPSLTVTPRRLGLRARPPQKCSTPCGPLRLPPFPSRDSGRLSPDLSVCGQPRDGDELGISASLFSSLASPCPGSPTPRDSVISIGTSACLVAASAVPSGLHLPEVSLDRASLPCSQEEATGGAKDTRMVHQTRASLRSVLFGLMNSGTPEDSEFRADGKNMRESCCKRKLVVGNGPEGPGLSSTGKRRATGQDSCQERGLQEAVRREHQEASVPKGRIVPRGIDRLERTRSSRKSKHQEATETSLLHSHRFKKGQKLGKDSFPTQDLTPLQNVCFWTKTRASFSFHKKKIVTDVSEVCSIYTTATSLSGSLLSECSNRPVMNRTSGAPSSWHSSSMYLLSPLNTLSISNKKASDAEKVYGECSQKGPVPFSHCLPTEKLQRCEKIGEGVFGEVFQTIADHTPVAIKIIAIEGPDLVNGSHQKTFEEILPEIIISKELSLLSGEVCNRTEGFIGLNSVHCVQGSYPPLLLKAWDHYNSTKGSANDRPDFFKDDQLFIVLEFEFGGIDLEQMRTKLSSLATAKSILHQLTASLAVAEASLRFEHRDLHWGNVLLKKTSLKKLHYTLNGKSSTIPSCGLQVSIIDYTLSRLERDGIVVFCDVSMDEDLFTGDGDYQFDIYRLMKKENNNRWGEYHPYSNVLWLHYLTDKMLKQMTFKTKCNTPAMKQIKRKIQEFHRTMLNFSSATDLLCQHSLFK

[5] = biological target: Mitogen-activated protein kinase 9 (Homo sapiens) (UniProt P45984); test: MAPK9 SGC Tm panel (DSF); settings: for ΔTm: Compound concentration 10.0 uM
[6] = biological target: SRSF protein kinase 1 (Homo sapiens) (UniProt Q96SB4); test: SRPK1 SGC Tm panel (DSF); settings: for ΔTm: Compound concentration 10.0 uM
[7] = biological target: T3, 5-hydroxytryptamine receptor 3A (Homo sapiens) (UniProt P46098); settings: Compound concentration 10.0 uM
T3 sequence (whole entry): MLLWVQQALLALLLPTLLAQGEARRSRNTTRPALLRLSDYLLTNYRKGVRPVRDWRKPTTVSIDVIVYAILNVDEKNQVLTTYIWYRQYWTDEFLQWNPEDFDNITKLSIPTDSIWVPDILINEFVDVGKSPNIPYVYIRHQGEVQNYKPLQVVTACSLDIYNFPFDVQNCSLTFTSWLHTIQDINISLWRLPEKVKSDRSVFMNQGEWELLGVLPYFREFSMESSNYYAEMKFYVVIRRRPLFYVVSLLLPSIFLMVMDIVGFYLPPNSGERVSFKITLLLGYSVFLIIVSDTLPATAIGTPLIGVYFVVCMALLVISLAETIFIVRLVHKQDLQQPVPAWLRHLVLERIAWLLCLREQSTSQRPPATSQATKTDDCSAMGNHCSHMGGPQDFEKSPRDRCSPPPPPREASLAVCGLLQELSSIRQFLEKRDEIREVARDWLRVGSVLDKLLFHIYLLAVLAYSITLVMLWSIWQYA

Rattus norvegicus = species: Rattus norvegicus; settings: Compound concentration 10.0 uM

Chain of Mitogen-activated protein kinase 9 (Homo sapiens) (P45984 whole entry, looked up): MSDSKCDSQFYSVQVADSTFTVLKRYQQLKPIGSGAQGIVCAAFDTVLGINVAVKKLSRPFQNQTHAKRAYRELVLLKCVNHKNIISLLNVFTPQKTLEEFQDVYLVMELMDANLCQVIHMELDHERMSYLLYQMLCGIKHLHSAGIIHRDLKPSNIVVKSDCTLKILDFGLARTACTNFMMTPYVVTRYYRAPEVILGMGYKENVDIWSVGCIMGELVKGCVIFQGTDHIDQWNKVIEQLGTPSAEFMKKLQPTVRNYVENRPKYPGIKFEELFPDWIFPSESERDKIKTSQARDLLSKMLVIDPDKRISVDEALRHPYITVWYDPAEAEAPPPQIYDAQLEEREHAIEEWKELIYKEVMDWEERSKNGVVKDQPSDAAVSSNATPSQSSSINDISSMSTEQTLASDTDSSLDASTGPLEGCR
Chain of SRSF protein kinase 1 (Homo sapiens) (Q96SB4 whole entry): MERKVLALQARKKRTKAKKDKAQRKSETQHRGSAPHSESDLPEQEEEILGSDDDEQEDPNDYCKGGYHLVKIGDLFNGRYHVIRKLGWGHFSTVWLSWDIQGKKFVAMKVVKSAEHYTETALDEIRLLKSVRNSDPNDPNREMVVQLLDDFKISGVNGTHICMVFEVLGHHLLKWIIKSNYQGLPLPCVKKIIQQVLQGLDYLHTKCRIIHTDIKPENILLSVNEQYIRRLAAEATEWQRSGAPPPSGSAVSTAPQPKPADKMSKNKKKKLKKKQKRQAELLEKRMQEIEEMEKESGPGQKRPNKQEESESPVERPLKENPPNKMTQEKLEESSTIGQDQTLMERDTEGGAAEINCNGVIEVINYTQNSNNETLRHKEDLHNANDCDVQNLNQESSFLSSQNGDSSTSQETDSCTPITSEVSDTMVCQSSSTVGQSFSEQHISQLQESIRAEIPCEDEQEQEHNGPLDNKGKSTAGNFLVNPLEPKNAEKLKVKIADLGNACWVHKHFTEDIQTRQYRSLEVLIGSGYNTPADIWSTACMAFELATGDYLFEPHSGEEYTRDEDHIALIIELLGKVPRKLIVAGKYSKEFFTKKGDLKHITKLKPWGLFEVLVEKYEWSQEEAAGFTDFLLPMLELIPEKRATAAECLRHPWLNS
Chain of Death-associated protein kinase 1 (Homo sapiens) (P53355 whole entry, looked up): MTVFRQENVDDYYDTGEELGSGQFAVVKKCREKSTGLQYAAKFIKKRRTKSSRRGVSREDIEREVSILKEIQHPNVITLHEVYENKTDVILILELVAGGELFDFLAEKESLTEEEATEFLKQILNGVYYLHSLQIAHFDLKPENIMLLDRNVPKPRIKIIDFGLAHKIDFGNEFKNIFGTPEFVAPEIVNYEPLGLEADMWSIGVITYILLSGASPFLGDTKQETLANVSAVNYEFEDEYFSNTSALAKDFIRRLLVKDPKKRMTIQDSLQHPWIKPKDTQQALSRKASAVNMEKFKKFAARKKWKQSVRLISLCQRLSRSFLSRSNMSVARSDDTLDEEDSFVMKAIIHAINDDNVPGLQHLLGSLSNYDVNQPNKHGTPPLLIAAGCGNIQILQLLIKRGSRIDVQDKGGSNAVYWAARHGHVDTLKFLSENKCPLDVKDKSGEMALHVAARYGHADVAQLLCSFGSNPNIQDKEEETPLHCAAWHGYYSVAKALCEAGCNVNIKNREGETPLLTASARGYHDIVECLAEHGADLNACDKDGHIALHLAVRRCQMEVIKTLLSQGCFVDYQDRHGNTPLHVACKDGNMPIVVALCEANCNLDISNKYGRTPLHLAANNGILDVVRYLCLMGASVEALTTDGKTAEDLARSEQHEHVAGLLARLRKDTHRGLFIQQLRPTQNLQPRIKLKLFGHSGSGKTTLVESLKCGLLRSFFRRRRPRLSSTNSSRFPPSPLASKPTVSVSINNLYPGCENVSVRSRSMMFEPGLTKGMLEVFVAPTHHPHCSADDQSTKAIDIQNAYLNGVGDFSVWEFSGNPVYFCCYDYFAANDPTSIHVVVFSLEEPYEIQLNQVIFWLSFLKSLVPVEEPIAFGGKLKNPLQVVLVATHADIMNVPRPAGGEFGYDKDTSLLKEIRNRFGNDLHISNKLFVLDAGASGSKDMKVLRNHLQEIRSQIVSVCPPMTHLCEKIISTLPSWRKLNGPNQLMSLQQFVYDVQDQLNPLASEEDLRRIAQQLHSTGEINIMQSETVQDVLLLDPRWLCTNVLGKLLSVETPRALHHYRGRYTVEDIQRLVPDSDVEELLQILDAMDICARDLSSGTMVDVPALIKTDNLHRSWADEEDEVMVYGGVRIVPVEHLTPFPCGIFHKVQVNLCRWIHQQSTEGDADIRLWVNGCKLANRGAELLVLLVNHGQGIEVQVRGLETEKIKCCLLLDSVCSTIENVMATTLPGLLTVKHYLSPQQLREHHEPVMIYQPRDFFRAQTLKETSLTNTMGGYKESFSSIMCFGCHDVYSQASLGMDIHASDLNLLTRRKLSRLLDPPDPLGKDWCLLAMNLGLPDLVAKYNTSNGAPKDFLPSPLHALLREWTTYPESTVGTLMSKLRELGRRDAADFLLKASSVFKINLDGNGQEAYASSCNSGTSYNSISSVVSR
Chain of Tyrosine-protein kinase Fes/Fps (Homo sapiens) (P07332 whole entry): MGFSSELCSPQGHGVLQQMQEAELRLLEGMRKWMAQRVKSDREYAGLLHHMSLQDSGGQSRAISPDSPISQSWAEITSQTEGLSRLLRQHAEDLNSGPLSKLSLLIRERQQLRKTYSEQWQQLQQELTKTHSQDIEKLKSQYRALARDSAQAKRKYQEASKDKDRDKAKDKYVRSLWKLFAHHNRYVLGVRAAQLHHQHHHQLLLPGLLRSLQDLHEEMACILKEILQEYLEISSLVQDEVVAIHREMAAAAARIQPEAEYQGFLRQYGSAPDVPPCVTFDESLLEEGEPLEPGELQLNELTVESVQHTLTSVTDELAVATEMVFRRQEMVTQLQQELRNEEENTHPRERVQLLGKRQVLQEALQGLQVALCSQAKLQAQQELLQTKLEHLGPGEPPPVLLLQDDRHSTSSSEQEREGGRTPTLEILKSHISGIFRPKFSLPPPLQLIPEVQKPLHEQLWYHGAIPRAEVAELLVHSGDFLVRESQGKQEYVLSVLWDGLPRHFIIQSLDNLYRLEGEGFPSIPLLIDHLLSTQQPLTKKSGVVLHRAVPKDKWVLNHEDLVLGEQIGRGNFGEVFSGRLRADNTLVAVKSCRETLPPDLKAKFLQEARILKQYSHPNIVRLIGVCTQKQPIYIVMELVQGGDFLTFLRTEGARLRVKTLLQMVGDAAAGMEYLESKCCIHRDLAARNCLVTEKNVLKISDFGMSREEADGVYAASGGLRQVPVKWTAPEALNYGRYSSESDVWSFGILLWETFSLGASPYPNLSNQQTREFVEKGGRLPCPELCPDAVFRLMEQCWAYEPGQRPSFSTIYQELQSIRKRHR

| Compound | delta Tm Staurosporine positive control [1] | ΔTm [1] | delta Tm Staurosporine positive control [2] | ΔTm [2] | delta Tm Staurosporine positive control [3] | ΔTm [3] | delta Tm Staurosporine positive control [4] | ΔTm [4] | delta Tm Staurosporine positive control [5] | ΔTm [5] | delta Tm Staurosporine positive control [6] | ΔTm [6] | inhibition [7] | inhibition (Rattus norvegicus) |
| --- | --- | --- | --- | --- | --- | --- | --- | --- | --- | --- | --- | --- | --- | --- |
| CCC[C@H]1CNCc2c1[nH]c(=O)c(C#N)c2N1CCC2(CC1)CC2 | 9.84 | 0.2 | 12.7 | -1.21 | 9.22 | -0.11 | 8.53 | -0.0501 | 3.03 | -0.605 | 7.17 | -0.269 | 7.4% | 10.4% |
| CCC[C@@H]1CNCc2c1[nH]c(=O)c(C#N)c2N1CCC2(CC1)CC2 | 9.84 | -0.225 | 12.7 | -1.16 | 9.22 | -0.389 | 8.53 | -0.64 | 3.03 | -0.0844 | 7.17 | -0.188 | 5.44% | 0.4% |
